Series [1] concerns Escherichia coli. The experiment in a line: Antibacterial activity against Escherichia coli BL21 after 20 hrs by two fold serial dilution method. In kind it is functional. The note with it: BL21, 20 h.
Another series has as its system Erythrocyte. The experiment in a line: Hemolytic activity in human RBC after 1 hr. In kind it is ADME, cell-based.
Series [2] is described as follows: Hemolytic activity in human RBC at 4 uM after 1 hr. To be noted: red blood cells (erythrocytes), read-out: Activity. The series is classed as ADME, cell-based, Erythrocyte.
Series [3] in a line: Therapeutic index, ratio of MHC for human RBC to MIC for Escherichia coli BL21. In kind it is toxicity. To be noted: read-out: TI.
Series [4] relates to Escherichia coli. The experiment in a line: Growth inhibition of Escherichia coli BL21 at 2 uM after 2 hrs relative to 6K-F17. In kind it is functional. To be noted: for inhibition of growth at 2 µM: BL21, BL21, 2 h, read-out: GI.
The nature of series [5]: Binding affinity to SDS detergent micelles assessed as reduction in blue shift at 10 uM by tryptophan fluorescence-based fluorometry.
Series [6] relates to Lipid bilayer. Nature of the series: Binding affinity to Escherichia coli large unilamellar vesicles assessed as reduction in blue shift at 10 uM by tryptophan fluorescence-based fluorometry.
Series [7] has as its system Lipid bilayer. Nature of the series: Binding affinity to POPC liposome membranes assessed as reduction in blue shift at 10 uM by tryptophan fluorescence-based fluorometry.
The subject of series [8] is Escherichia coli. The experiment in a line: Time dependent inhibition of Escherichia coli BL21 at 2 uM. The series is classed as functional, organism-based.
Series [9] has as its system Escherichia coli. The experiment in a line: Time dependent inhibition of Escherichia coli BL21 at 4 uM. In kind it is functional, organism-based.
Series [10] concerns Escherichia coli. Nature of the series: Time dependent inhibition of Escherichia coli BL21 at 8 uM. In kind it is functional, organism-based.
Series [11] concerns Lipid bilayer. Nature of the series: Binding affinity to Escherichia coli large unilamellar vesicles assessed as change in spectral line shape by 31P solid-state NMR spectroscopic analysis.
For series [12], the system named is Lipid bilayer. Nature of the series: Binding affinity to POPC liposome membranes assessed as change in spectral lineshape by 31P solid-state NMR spectroscopic analysis.

Data on five compounds can be found in ChEMBL document CHEMBL4184195, “Influence of hydrocarbon-stapling on membrane interactions of synthetic antimicrobial peptides” (Bioorg Med Chem, 2018).

Values after ≈ are worked out from the molar mass of the structure shown. Active and inactive are the calls of the source. The calls are words filed in the database; no cut-off is given here. Bridge positions count the residues as written; N and C are the ends. Square brackets hold non-standard residues; d marks the D form. Peptide text beside a SMILES is read from it. S5 = C=CCCC[C@](C)(N)C(=O)O Some results are limits rather than exact numbers.

On to `C[C@H](NC(=O)[C@H](C)NC(=O)[C@H](Cc1ccccc1)NC(=O)[C@]1(C)CCC/C=C\CCC[C@](C)(NC(=O)[C@H](Cc2ccccc2)NC(=O)[C@H](C)NC(=O)[C@H](C)NC(=O)[C@H](CCCCN)NC(=O)[C@H](CCCCN)NC(=O)[C@H](CCCCN)NC(=O)[C@H](CCCCN)NC(=O)[C@H](CCCCN)NC(=O)[C@@H](N)CCCCN)C(=O)N[C@@H](C)C(=O)N[C@@H](Cc2c[nH]c3ccccc23)C(=O)N[C@@H](C)C(=O)N1)C(N)=O` (H-KKKKKKAAF[S5]AWA[S5]FAA-NH2; staple (Z) 10-14), for which the minimum inhibitory concentration (MIC) (as a rule, the least concentration at which growth counts as inhibited) in the series on Escherichia coli [1] was 1 µM (≈ 1.94 µg/mL). In addition, the MHC in the series on Erythrocyte was found to be 3.8 µM. The hemolysis at 1 h, 4 µM in [2] stood at 2%. For the same compound, the selectivity ratio in series [3] was 3.8. For the same compound, in the series on Escherichia coli [4], the inhibition of growth at 2 µM was no more than 40%. The outcome in series [5] was Active. Further, the outcome in the series with Lipid bilayer [6] and with Lipid bilayer [7] was inactive. For the same compound, in the series on Escherichia coli [8], the inhibition result is “Active”.

The compound `C[C@H](NC(=O)CNC(=O)[C@H](Cc1ccccc1)NC(=O)[C@]1(C)CCC/C=C\CCC[C@](C)(NC(=O)[C@H](Cc2ccccc2)NC(=O)CNC(=O)[C@H](C)NC(=O)[C@H](CCCCN)NC(=O)[C@H](CCCCN)NC(=O)[C@H](CCCCN)NC(=O)[C@H](CCCCN)NC(=O)[C@H](CCCCN)NC(=O)[C@@H](N)CCCCN)C(=O)N[C@@H](C)C(=O)N[C@@H](Cc2c[nH]c3ccccc23)C(=O)N[C@@H](C)C(=O)N1)C(N)=O` (H-KKKKKKAGF[S5]AWA[S5]FGA-NH2; staple (Z) 10-14) displayed an MIC in the series with Escherichia coli [1] of 1.6 µM (≈ 3.06 µg/mL). This compound showed an MHC with Erythrocyte of 15 µM. In [3], the selectivity ratio came to 9.4. Also, the inhibition of growth at 2 µM with Escherichia coli [4] was no more than 40%. The inhibition result with Escherichia coli [9] was “Active”. The outcome (in series [5]; in the series on Lipid bilayer [6]) was Active. Besides, the outcome in the series on Lipid bilayer [7] was inactive.

Compound `C[C@H](NC(=O)CNC(=O)[C@H](Cc1ccccc1)NC(=O)[C@]1(C)CCC/C=C\CCC[C@](C)(NC(=O)[C@H](Cc2ccccc2)NC(=O)CNC(=O)[C@H](C)NC(=O)[C@H](CCCCN)NC(=O)[C@H](CCCCN)NC(=O)[C@H](CCCCN)NC(=O)[C@H](CCCCN)NC(=O)[C@H](CCCCN)NC(=O)[C@@H](N)CCCCN)C(=O)N[C@@H](C)C(=O)N[C@@H](Cc2c[nH]c3ccccc23)C(=O)NCC(=O)N1)C(N)=O` (H-KKKKKKAGF[S5]AWG[S5]FGA-NH2; staple (Z) 10-14) gave an MIC against Escherichia coli [1] of 4.2 µM (≈ 7.99 µg/mL). Moreover, in the series with Erythrocyte, the MHC was found to be 128 µM. Moreover, the selectivity ratio in series [3] worked out at 30.8. In addition, the inhibition of growth at 2 µM in the series with Escherichia coli [4] was no more than 40%. For the same compound, in the series on Escherichia coli [10], the inhibition entry was “Active”. Besides, the outcome (in series [5]; with Lipid bilayer [6]) was Active. For the same compound, the outcome with Lipid bilayer [7] was inactive.

For `C[C@H](NC(=O)CNC(=O)[C@H](Cc1ccccc1)NC(=O)[C@]1(C)CCC/C=C\CCC[C@](C)(NC(=O)[C@H](Cc2ccccc2)NC(=O)CNC(=O)[C@H](CC(N)=O)NC(=O)[C@H](CCCCN)NC(=O)[C@H](CCCCN)NC(=O)[C@H](CCCCN)NC(=O)[C@H](CCCCN)NC(=O)[C@H](CCCCN)NC(=O)[C@@H](N)CCCCN)C(=O)N[C@@H](C)C(=O)N[C@@H](Cc2c[nH]c3ccccc23)C(=O)NCC(=O)N1)C(N)=O` (H-KKKKKKNGF[S5]AWG[S5]FGA-NH2; staple (Z) 10-14), in the series on Escherichia coli [1], the MIC stood at 4.2 µM (≈ 8.17 µg/mL). Besides, the MHC in the series with Erythrocyte was 587 µM. In addition, the selectivity ratio in series [3] turned out to be 140. Also, in the series on Escherichia coli [4], the inhibition of growth at 2 µM was no more than 40%. The inhibition entry with Escherichia coli [10] was “Active”. Also, the outcome (in [5]; with Lipid bilayer [7]; with Lipid bilayer [12]) was inactive. The outcome with Lipid bilayer [6] and in the series on Lipid bilayer [11] was Active.

H-KKKKKKAAFAAWAAFAA-NH2 returned an MIC against Escherichia coli [1] of 1.6 µM. The compound also had an MHC in the series on Erythrocyte of 320 µM. The selectivity ratio in series [3] worked out at 200. Also, the “growth inhibition (GI)” value in the series on Escherichia coli [4] was “Active”. In addition, the inhibition entry in the series on Escherichia coli [9] is “Active”. The result (in series [5]; with Lipid bilayer [6]; in the series on Lipid bilayer [11]; in the series on Lipid bilayer [12]) was Active. Moreover, the outcome in the series on Lipid bilayer [7] was inactive.
